According to PMC9629815, “MK256 is a novel CDK8 inhibitor with potent antitumor activity in AML through downregulation of the STAT pathway” (Oncotarget, 2022):

Columns and labels:
[1] = Hepatocyte stability assay; assay type: in vitro ADME, Mouse
Protocol: Human LiverPoolTM 20-donor, dog and mouse cryopreserved hepatocytes were obtained from BioreclamationIVT. Cryopreserved hepatocytes were removed from the liquid nitrogen tank and thawed in a 37°C water bath. As soon as the cells pulled away from the vial wall, they were decanted into 48 ml of warm HT medium. Cells were centrifuged for four minutes at 420 rpm (50 g). After the supernatant was removed, the pellet was re-suspended in warm DMEM medium. Cell density was counted by a hemacytometer. The assay was carried out in 96-well microtiter plates. MK256 was incubated for 0, 60, 120, and 180 minutes at 37°C with hepatocytes. Reaction mixtures (50 μL) contained a final concentration of 1 μM MK256, 0.5 million cells/mL hepatocytes in the DMEM medium. At each time point (for example, 0, 1, 2, and 3 hrs), 200 μL of quench solution (100% acetonitrile with 0.1% formic acid) with internal standard were transferred to each well. […] All samples were analyzed on LC/MS/MS using an AB Sciex API 4000 instrument, coupled to a Shimadzu LC-20AD LC Pump system. […] The extent of metabolism was calculated as the disappearance of the test compound, compared to the 0-min control reaction incubations. Initial rates were calculated for the compound concentration and used to determine t1/2 values and subsequently, the intrinsic clearance, CLint = (0.693)(1/t1/2 (min))(mL incubation/million cells).

hERG = hERG (Homo sapiens, UniProt Q12809); experiment: hERG safety assay; conditions: 30 uM
Chain of hERG (Q12809 whole entry): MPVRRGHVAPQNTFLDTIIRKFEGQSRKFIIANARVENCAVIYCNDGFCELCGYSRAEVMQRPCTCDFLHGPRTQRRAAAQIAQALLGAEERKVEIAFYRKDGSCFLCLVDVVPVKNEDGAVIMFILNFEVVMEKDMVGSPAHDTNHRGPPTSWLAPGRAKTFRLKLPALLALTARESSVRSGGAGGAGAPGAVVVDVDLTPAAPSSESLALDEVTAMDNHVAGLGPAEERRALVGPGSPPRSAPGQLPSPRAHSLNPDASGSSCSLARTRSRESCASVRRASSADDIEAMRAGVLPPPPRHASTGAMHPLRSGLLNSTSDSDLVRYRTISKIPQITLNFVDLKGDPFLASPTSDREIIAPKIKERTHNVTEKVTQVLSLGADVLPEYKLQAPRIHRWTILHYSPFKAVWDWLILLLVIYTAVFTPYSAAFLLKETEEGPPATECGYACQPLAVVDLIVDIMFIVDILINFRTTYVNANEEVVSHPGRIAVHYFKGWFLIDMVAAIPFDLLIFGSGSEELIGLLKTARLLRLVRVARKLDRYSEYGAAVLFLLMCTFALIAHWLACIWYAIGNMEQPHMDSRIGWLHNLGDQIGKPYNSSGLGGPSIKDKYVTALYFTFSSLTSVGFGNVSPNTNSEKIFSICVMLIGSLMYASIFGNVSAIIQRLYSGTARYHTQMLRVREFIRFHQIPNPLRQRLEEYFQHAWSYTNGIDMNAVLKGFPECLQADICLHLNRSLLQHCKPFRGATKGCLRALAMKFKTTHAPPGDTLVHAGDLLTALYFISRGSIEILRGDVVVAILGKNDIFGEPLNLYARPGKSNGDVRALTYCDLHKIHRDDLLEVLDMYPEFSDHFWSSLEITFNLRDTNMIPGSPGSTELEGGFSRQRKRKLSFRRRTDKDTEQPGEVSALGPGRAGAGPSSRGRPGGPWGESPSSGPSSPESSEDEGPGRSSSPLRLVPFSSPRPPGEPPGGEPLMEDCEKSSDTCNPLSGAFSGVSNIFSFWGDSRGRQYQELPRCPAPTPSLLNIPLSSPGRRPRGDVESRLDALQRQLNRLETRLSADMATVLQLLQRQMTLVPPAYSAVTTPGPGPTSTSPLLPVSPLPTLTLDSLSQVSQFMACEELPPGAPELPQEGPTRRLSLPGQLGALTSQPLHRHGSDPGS

For `Nc1nccc2c(Br)cc3cc(C(=O)O)ccc3c12` [MK256], which “Clint (μL·min^−1·mg protein^−1)” value ([1]; Mouse hepatocytes) is on record?
The value was 5 μL·min^−1·mg protein^−1.

What about the half-life at 1 µM ([1]; mouse, cryopreserved mouse hepatocytes, read-out: T½) of the same compound?
Its half-life at 1 µM is 5.18 h.

And the “inhibition of hERG” value (hERG)?
Its value is “no inhibition”.
